The text below walks through data of patent US4665068A, “Novel 9-chloro-1,5-benzothiazepine derivatives and their pharmaceutical use” (Tanabe Seiyaku Co., Ltd., priority 1984, dated 1987).

For data set [1], the system named is vertebral artery blood flow. Nature of the data set: Cerebral vasodilating activity, blood flow in vertebral artery of anesthetized dogs. To be noted: for increase in vertebral artery blood flow / cerebral vasodilating activity, times stronger than the 7-chloro derivative: intraarterial; for cerebral vasodilating activity, times stronger than the 7-chloro derivative: vs (±)-cis-3-acetoxy-7-chloro derivative hydrochloride; for Cerebral vasodilating activity (potency ratio): potency ratio to papaverine from dose-response curves, injected into vertebral artery. Type of data set: in vivo, dog (male). On the procedure: (§1) On the other hand, when the coronary vasodilating activity is estimated by the Langendorff method using isolated hearts of guinea pigs, said activity of (+)-cis-2-(4-methoxyphenyl)-3-acetoxy-5-[2-(dimethylamino)ethyl]-9-chloro- 2,3-dihydro-1,5-benzothiazepin-4(5H)-one hydrochloride is about 10 times stronger than that of papaverine.
(Cerebral vasodilating activity)
Male dogs weighing 10 to 20 kg were anesthetized with sodium pentobarbital (30 mg/kg, intravenous injection). The blood flow in vertebral artery was measured continuously by means of an electromagnetic flowmeter under artificial respiration. A test compound dissolved in an aqueous 5% glucose solution was injected into vertebral artery. The cerebral vasodilating activity of the test compound was estimated in terms of the potency ratio of said compound to papaverine, which was calculated from the dose-response curves thereof.

Data set [2] deals with spontaneously hypertensive rats (SHR). Nature of the data set: Hypotensive activity, systolic blood pressure of SHR after oral dosing (tail plethysmographic technique). Type of data set: in vivo, rat (spontaneously hypertensive. To be noted: 30 mg/kg oral.
Method: A test compound (dose: 30 mg/kg) dissolved or suspended in water was administered orally to spontaneously hypertensive rats (SHR) (one group: 3 rats) fasted overnight. […] The hypotensive activity of the test compound was estimated at one or 4 hours after dosing and expressed as "-" if the decrease in blood pressure is less than 10 mm Hg; "+" if the decrease is not less than 10 mm Hg but less than 20 mm Hg; "++" if the decrease is not less than 20 mm Hg but less than 40 mm Hg; "+++" if the decrease is not less than 40 mm Hg but less than 60 mm Hg; or "++++" if the decrease is not less than 60 mm Hg.
Data set [3] is described as follows: Acute toxicity, oral, mice. To be noted: mouse, in vivo. On the procedure:
For example, the acute toxicity (LD50) of (+)-cis-2-(4-methoxypnenyl)-3-acetoxy-5-[2-(dimethylamino)ethyl]-9-chloro- 2,3-dihydro-1,5-benzothiazepin-4(5H)-one hydrochloride when orally administered to mice is about 1,000 mg/kg.

The test system of data set [4] is coronary blood flow of the isolated heart of guinea pig. Nature of the data set: Coronary vasodilating activity, Langendorff's method, isolated heart of guinea pig. Particulars: for Coronary vasodilating activity: isolated guinea pig heart.
Excerpt: as §1
(Coronary vasodilating activity)
Langendorff's method was used for testing the effect on the coronary blood flow of the isolated heart of guinea pig (about 280 g). The isolated heart was perfused with Locke-Ringer solution containing 2% of defibrinated rabbit blood, which had been saturated with a mixed gas of 95% O2 and 5% CO2 (30° C.). Perfusion pressure was kept at 40 cm H2 O. A solution of a test compound in an aqueous 5% glucose solution was injected into the perfusing solution at a volume of 0.1 ml per heart. The outflow of the perfusate was measured by means of a drop counter.
The coronary vasodilating activity of the test compound was expressed as "±" if the increase in coronary blood flow is less than 0.5 ml/minute at a dose of 100 μg/heart; "+" if the increase is not less than 0.5 ml/minute at a dose of 100 μg/heart; "++" if the increase is not less than 0.5 ml/minute at a dose of 30 μg/heart; and "+++" if the increase is not less than 0.5 ml/minute at a dose of not more than 10 μg/heart.

Data set [5] has as its system platelet aggregation. Nature of the data set: Platelet aggregation-inhibiting activity (collagen, platelet-rich plasma, Born's method). Also on record: key to the marks not given beside the values. To be noted: final concentration 100 μg/ml, rat PRP, 37° C. The class given is cell-based, rat (male Sprague-Dawley). The source says: (Platelet aggregation-inhibiting activity)
Blood was collected from the abdominal aorta of male Sprague-Dawley rats which were anesthetized with ether. Nine volumes of rat blood were mixed with one volume of an aqueous trisodium citrate solution, and the mixture was centrifuged to give platelet-rich plasma ("PRP") as the supernatant solution. The bottom layer was further centrifuged to give platelet-poor plasma ("PPP") as the supernatant solution. Platelet counts were adjusted to 0.8-1×10^6 /mm^3 for PRP by dilution with PPP. After a mixture of 200 μl of the diluted PRP and 25 μl of a test compound solution (final concentration: 100 μg/ml) was stirred for 2 minutes at 37° C., 25 μl of a collagen solution [Biochim. Biophys.

Counter-ions that a name gives are not always drawn.

`COc1ccc([C@@H]2Sc3c(Cl)cccc3N(CCN(C)C)C(=O)[C@@H]2OC(C)=O)cc1.Cl` (single isomer, unassigned) [(+)-cis-2-(4-methoxyphenyl)-3-acetoxy-5-[2-(dimethylamino)ethyl]-9-chloro-2,3-dihydro-1,5-benzothiazepin-4(5H)-one hydrochloride]: in data set [1], the “increase in vertebral artery blood flow” value is given as “remarkable increase in vertebral artery blood flow”; the “cerebral vasodilating activity, times stronger than the 7-chloro derivative” value was “more than 3 times”; the “Cerebral vasodilating activity (potency ratio)” value amounted to 15. For the same compound, the “decrease in blood pressure, one hour after administration” value in data set [2] (1 hour) is listed as “about 74 mm Hg”. For the same compound, in data set [2], the “Hypotensive activity, 1 hr after dosing” value was “++++ (decrease is not less than 60 mm Hg)” and the “Hypotensive activity, 4 hrs after dosing” value is on record as “+++ (decrease is not less than 40 mm Hg but less than 60 mm Hg)”. The “decrease in blood pressure, 4 hours after administration” value in data set [2] (4 hours) is recorded as around 54 mm Hg. Moreover, in data set [3], the LD50 (as a rule, the dose at which mortality reaches 50%) is around 1000 mg/kg. For the same compound, the Coronary vasodilating activity entry in data set [4] is given as “+++ (increase is not less than 0.5 ml/minute at a dose of not more than 10 μg/heart)”. The “coronary vasodilating activity, times stronger than papaverine” value in data set [4] (isolated guinea pig hearts, vs papaverine) is given as “about 10 times”.

`COc1ccc(Cc2nccc3cc(OC)c(OC)cc23)cc1OC` [Papaverine, reference compound]: the Coronary vasodilating activity entry in data set [4] was “+ (increase is not less than 0.5 ml/minute at a dose of 100 μg/heart)”.

Consider `COc1ccc([C@@H]2Sc3c(Cl)cccc3N(CCN(C)C)C(=O)[C@@H]2OC(C)=O)cc1.Cl` (racemic) [(±)-cis-2-(4-methoxyphenyl)-3-acetoxy-5-[2-(dimethylamino)ethyl]-9-chloro-2,3-dihydro-1,5-benzothiazepin-4(5H)-one hydrochloride], for which the Platelet aggregation-inhibiting activity entry in data set [5] was “++”. Moreover, in data set [2], the “Hypotensive activity, 1 hr after dosing” value was “+++ (decrease is not less than 40 mm Hg but less than 60 mm Hg)” and the “Hypotensive activity, 4 hrs after dosing” value is recorded as “+++ (decrease is not less than 40 mm Hg but less than 60 mm Hg)”. In data set [4], the Coronary vasodilating activity result is given as “+++ (increase is not less than 0.5 ml/minute at a dose of not more than 10 μg/heart)”.

As for `COc1ccc([C@@H]2Sc3ccc(Cl)cc3N(CCN(C)C)C(=O)[C@@H]2OC(C)=O)cc1.Cl` (racemic) [(±)-cis-2-(4-methoxyphenyl)-3-acetoxy-5-[2-(dimethylamino)ethyl]-7-chloro-2,3-dihydro-1,5-benzothiazepin-4(5H)-one hydrochloride, reference compound], the “Cerebral vasodilating activity (potency ratio)” value in data set [1] came to 5.

As to `COc1ccc([C@@H]2Sc3ccc(Cl)cc3N(CCN(C)C)C(=O)[C@@H]2OC(C)=O)cc1` (relative stereo) [(+)-cis-2-(4-methoxyphenyl)-3-acetoxy-5-[2-(dimethylamino)ethyl]-7-chloro-2,3-dihydro-1,5-benzothiazepin-4(5H)--one hydrochloride, reference compound], in data set [2], the “Hypotensive activity, 1 hr after dosing” value is recorded as “++ (decrease is not less than 20 mm Hg but less than 40 mm Hg)” and the “Hypotensive activity, 4 hrs after dosing” value was “+ (decrease is not less than 10 mm Hg but less than 20 mm Hg)”.

In the case of `COc1ccc([C@@H]2Sc3c(Cl)cccc3N(CCN(C)C)C(=O)[C@@H]2O)cc1.[O-][Cl+3]([O-])([O-])O` (single isomer, unassigned) [(+)-cis-2-(4-methoxyphenyl)-3-hydroxy-5-[2-(dimethylamino)ethyl]-9-chloro-2,3-dihydro-1,5-benzothiazepin-4(5H)-one perchlorate], in data set [1], the “increase in vertebral artery blood flow” value is on record as “remarkable increase in vertebral artery blood flow”; the “cerebral vasodilating activity, times stronger than the 7-chloro derivative” value was “more than 3 times”; the “Cerebral vasodilating activity (potency ratio)” value was 22. Moreover, in data set [2], the “Hypotensive activity, 1 hr after dosing” value is on record as “+++ (decrease is not less than 40 mm Hg but less than 60 mm Hg)” and the “Hypotensive activity, 4 hrs after dosing” value is reported as “++ (decrease is not less than 20 mm Hg but less than 40 mm Hg)”. Moreover, the Coronary vasodilating activity entry in data set [4] is given as “+++ (increase is not less than 0.5 ml/minute at a dose of not more than 10 μg/heart)”.

As for `COc1ccc([C@@H]2Sc3c(Cl)cccc3N(CCN(C)C)C(=O)[C@@H]2O)cc1.Cl` (racemic) [(±)-cis-2-(4-methoxyphenyl)-3-hydroxy-5-[2-(dimethylamino)ethyl]-9-chloro-2,3-dihydro-1,5-benzothiazepin-4(5H)-one hydrochloride], in data set [5], the Platelet aggregation-inhibiting activity entry is given as “++”. Also, the Coronary vasodilating activity entry in data set [4] is recorded as “+++ (increase is not less than 0.5 ml/minute at a dose of not more than 10 μg/heart)”.
